Laboratory results: PubChem BioAssay AID1259407 (Chemical Carcinogenesis Research Information System (CCRIS), 2018)
The source made the active and inactive calls. How the calls were made is not given here.

System: CCRIS mutagenicity, Ames/micronucleus/aberration tests
Test: CCRIS mutagenicity studies
[1] = Test System: AMES SALMONELLA TYPHIMURIUM, Strain/Indicator: TA98, Metabolic Activation: RAT, LIVER, S-9, AROCLOR 1254, Method: STANDARD PLATE
[2] = Test System: AMES SALMONELLA TYPHIMURIUM, Strain/Indicator: TA100, Metabolic Activation: NONE, Method: STANDARD PLATE
[3] = Test System: AMES SALMONELLA TYPHIMURIUM, Strain/Indicator: TA98, Metabolic Activation: NONE, Method: STANDARD PLATE

For `Oc1cccc2c1ccc1c3ccccc3ccc21`, the mutagenic call [1] was “inactive; negative” and the mutagenic call [2] was “inactive; negative”.
In the case of `CC(C)=CC(=O)C=C(C)C`, the mutagenic call (Test System: MOUSE LYMPHOMA, Strain/Indicator: L5178Y (TK+/TK-), Metabolic Activation: NONE, Method: SUSPENSION/PLATE) is reported as “inactive; negative”.
In the case of `O=Cc1ccccc1O`, the mutagenic call [3] is reported as “inactive; negative”, the mutagenic call (Test System: AMES SALMONELLA TYPHIMURIUM, Strain/Indicator: TA98, Metabolic Activation: S-9, Method: STANDARD PLATE) is reported as “inactive; negative” and the mutagenic call [2] is reported as “inactive; negative”. For the same compound, the mutagenic call (Test System: AMES SALMONELLA TYPHIMURIUM, Strain/Indicator: TA100, Metabolic Activation: S-9, Method: STANDARD PLATE) was “inactive; negative”.
For `C=C(Br)C(=O)O`, the mutagenic call (Test System: AMES SALMONELLA TYPHIMURIUM, Strain/Indicator: TA100, Metabolic Activation: NONE, Method: PREINCUBATION) was “inactive; negative” and the mutagenic call (Test System: AMES SALMONELLA TYPHIMURIUM, Strain/Indicator: TA100, Metabolic Activation: RAT, LIVER, MICROSOMES, Method: PREINCUBATION) was “inactive; negative”.
With `Cc1cc(O)c2c(c1)C(=O)c1c(c(O)cc(O)c1-c1c(O)cc(O)c3c1C(=O)c1cc(C)cc(O)c1C3=O)C2=O` the mutagenic call [3] was “inactive; negative”, the mutagenic call [1] was “inactive; negative” and the mutagenic call [2] was “inactive; negative”. For the same compound, the mutagenic call (Test System: AMES SALMONELLA TYPHIMURIUM, Strain/Indicator: TA100, Metabolic Activation: RAT, LIVER, S-9, AROCLOR 1254, Method: STANDARD PLATE) was “inactive; negative”, the mutagenic call (Test System: AMES SALMONELLA TYPHIMURIUM, Strain/Indicator: TA1537, Metabolic Activation: NONE, Method: STANDARD PLATE) was “inactive; negative” and the mutagenic call (Test System: AMES SALMONELLA TYPHIMURIUM, Strain/Indicator: TA1537, Metabolic Activation: RAT, LIVER, S-9, AROCLOR 1254, Method: STANDARD PLATE) was “inactive; negative”.
In the case of `O=c1c(O[C@@H]2O[C@H](CO)[C@H](O)[C@H](O)[C@H]2O)c(-c2ccc(O)c(O)c2)oc2cc(O)cc(O)c12`, the mutagenic call (Test System: Ames Salmonella typhimurium, Strain/Indicator: TA98, Metabolic Activation: None, Method: Standard plate) is reported as “inactive; negative” and the mutagenic call (Test System: Ames Salmonella typhimurium, Strain/Indicator: TA98, Metabolic Activation: Rat, Liver, S-9, Aroclor 1254, Method: Standard plate) is reported as “inactive; negative”.
